# Where a SMILES comes first, the peptide text is derived from it. [ ]: non-standard residue; d: D form. The star is where a group is joined. ξ: configuration not given here. Octanoyl(7-Me) = CC(C)CCCCCC(=O)*; Hexanoyl(4ξ-Me) = CCC(C)CCC(=O)*; dOrn = NCCC[C@@H](N)C(=O)O; Orn = NCCC[C@H](N)C(=O)O
# Columns and labels:
# [1] = test system: E. coli (MCR-1); format: cell-based, Escherichia coli; conditions: microbroth dilution per CLSI, MHB, 18 h at 37 °C, visual inspection, three technical replicates, E. coli 25922 carrying mcr-1
# Description: (§1) Linear laterocidine (LL-OH, 4) and linear brevicidine (LB-OH, 5) were first synthesized by Fmoc SPPS, starting from 2-chlorotrityl (2-CT) chloride resin. The antibacterial activity of these peptides was then compared to brevicidine (1) and laterocidine (2) using minimum inhibitory concentration (MIC)/microbroth dilution assays (Table 1). The MICs of all peptides were determined against a panel of Gram-negative and Gram-positive ESKAPE pathogens. Additionally, a strain of E. coli carrying the mcr-1 gene was included in the panel. The mcr-1 gene is a transferrable plasmid that confers resistance against colistin, a last-resort antibiotic for Gram-negative infections, by reducing the overall negative charge of lipopolysaccharide (LPS) through modification of lipid A with phosphoethanolamine. The propensity for cationic antibiotics to bind to the cell membrane is therefore reduced. This gene has been observed in more than 27 bacterial species over six continents.[26] The spread of the mcr-1 gene could render colistin ineffectual; therefore, novel antibacterials are urgently required to overcome this form of resistance.
# (§2) All minimum inhibitory concentrations (MICs) were determined according to Clinical and Laboratory Standards Institute (CLSI) guidelines. Blood agar plates were inoculated with glycerol stocks of E. coli ATCC 25922, K. pneumoniae ATCC 13883, A. baumannii ATCC 17961, P. aeruginosa PAO1, and S. aureus USA300. The inoculated agar plates were then incubated for 16 h at 37 °C. Individually grown colonies were subsequently used to inoculate 5 mL aliquots of TSB that were then incubated at 37 °C with shaking at 220 rpm. E. coli 25922 MCR-1 glycerol stock was used to inoculate 5 mL of TSB supplemented with kanamycin that was then incubated for 16 h at 37 °C with shaking at 220 rpm. The next day the culture was diluted 100-fold in TSB supplemented with kanamycin and incubated at 37 °C with shaking at 220 rpm. In parallel, the lipopeptide antibiotics DMSO stocks to be assessed were serially diluted with MHB in polypropylene 96-well plates (50 μL in each well). Colistin sulfate stocks were dissolved in water before being diluted with MHB. Aliquots of the inoculated TSB were incubated until an OD600 of around 0.5 was reached. The bacterial suspensions were then diluted with MHB (2 × 10^5 CFU/mL) and added to the microplates containing the test compounds (50 μL to each well). The well plates were sealed with an adhesive membrane and after 18 h of incubation at 37 °C with shaking at 600 rpm, the wells were visually inspected for bacterial growth. MIC values reported are based on three technical replicates and defined as the lowest concentration of the compound that prevented visible growth of bacteria.
# [2] = test system: E. coli ATCC 25922; format: cell-based, Escherichia coli; conditions: for Antibacterial activity (MIC) E. coli ATCC 25922: microbroth dilution per CLSI, MHB, 18 h at 37 °C, visual inspection, three technical replicates; for MIC (µg/mL) against E. coli (ATCC 25922): (Supplement 2)
# Description: as §1, §2
# [3] = test system: K. pneumoniae ATCC 13883; format: cell-based, Klebsiella pneumoniae; conditions: microbroth dilution per CLSI, MHB, 18 h at 37 °C, visual inspection, three technical replicates
# Description: as §1, §2
# [4] = test system: A. baumannii ATCC 17961; format: cell-based, Acinetobacter baumannii; conditions: microbroth dilution per CLSI, MHB, 18 h at 37 °C, visual inspection, three technical replicates
# Description: as §1, §2
# [5] = test system: P. aeruginosa PAO1; format: cell-based, Pseudomonas aeruginosa; conditions: microbroth dilution per CLSI, MHB, 18 h at 37 °C, visual inspection, three technical replicates
# Description: as §1, §2
# [6] = test system: S. aureus USA300; format: cell-based, Staphylococcus aureus; conditions: microbroth dilution per CLSI, MHB, 18 h at 37 °C, visual inspection, three technical replicates
# Description: as §1, §2
Compound,Antibacterial activity (MIC) E. coli (MCR-1) [1] [µg/mL],Antibacterial activity (MIC) E. coli ATCC 25922 [2] [µg/mL],Antibacterial activity (MIC) K. pneumoniae ATCC 13883 [3] [µg/mL],Antibacterial activity (MIC) A. baumannii ATCC 17961 [4] [µg/mL],Antibacterial activity (MIC) P. aeruginosa PAO1 [5] [µg/mL],Antibacterial activity (MIC) S. aureus USA300 [6] [µg/mL],MIC (µg/mL) against E. coli (ATCC 25922) [2] [µg/mL]
CCC(C)CCC(=O)N[C@H](CC(N)=O)C(=O)N[C@H](Cc1ccc(O)cc1)C(=O)N[C@H](Cc1c[nH]c2ccccc12)C(=O)N[C@H](CCCN)C(=O)N[C@@H](CCCN)C(=O)NCC(=O)N[C@H](CCCN)C(=O)N[C@@H](Cc1c[nH]c2ccccc12)C(=O)N[C@H](C(=O)N[C@H](C(=O)NCC(=O)N[C@@H](CO)C(=O)O)[C@@H](C)CC)[C@@H](C)O (stereo partly drawn) [LB-OH (5)] ({Hexanoyl(4ξ-Me)}-[dN][dY][dW][dOrn][Orn]G[dOrn]WTIGS-OH),>32,>32,>32,>32,16,>32,
CC[C@H](C)[C@H](NC(=O)[C@@H](NC(=O)[C@H](Cc1c[nH]c2ccccc12)NC(=O)[C@@H](CCCN)NC(=O)[C@H](C)NC(=O)[C@H](CCCN)NC(=O)[C@@H](CCCN)NC(=O)[C@@H](Cc1c[nH]c2ccccc12)NC(=O)[C@@H](Cc1ccc(O)cc1)NC(=O)[C@@H](CO)NC(=O)CCCCCC(C)C)[C@@H](C)O)C(=O)N[C@@H](CC(N)=O)C(=O)NCC(=O)NCC(N)=O [LL(Ala6)-NH2 (34)] ({Octanoyl(7-Me)}-[dS][dY][dW][dOrn][Orn]A[dOrn]WTINGG-NH2),8,4 to 8,8,16,16,>32,4 to 8
CC[C@H](C)[C@H](NC(=O)[C@@H](NC(=O)[C@H](Cc1c[nH]c2ccccc12)NC(=O)[C@@H](CCCN)NC(=O)CNC(=O)[C@H](CCCN)NC(=O)[C@@H](CCCN)NC(=O)[C@@H](Cc1c[nH]c2ccccc12)NC(=O)[C@@H](Cc1ccc(O)cc1)NC(=O)[C@@H](CO)NC(=O)CCCCCC(C)C)[C@@H](C)O)C(=O)N[C@@H](CC(N)=O)C(=O)NCC(N)=O [Δ13LL-NH2 (8)] ({Octanoyl(7-Me)}-[dS][dY][dW][dOrn][Orn]G[dOrn]WTING-NH2),8,8,4 to 8,4,4,>32,
CC(C)CCCCCC(=O)N[C@H](CO)C(=O)N[C@H](Cc1ccc(O)cc1)C(=O)N[C@H](Cc1c[nH]c2ccccc12)C(=O)N[C@H](CCCN)C(=O)N[C@@H](CCCN)C(=O)NCC(=O)N[C@H](CCCN)C(=O)N[C@@H](Cc1c[nH]c2ccccc12)C(=O)N[C@H](C(=O)N[C@@H](C)C(=O)N[C@@H](CC(N)=O)C(=O)NCC(=O)NCC(N)=O)[C@@H](C)O [LL(Ala10)-NH2 (38)] ({Octanoyl(7-Me)}-[dS][dY][dW][dOrn][Orn]G[dOrn]WTANGG-NH2),>32,>32,>32,>32,16,>32,
CC[C@H](C)[C@H](NC(=O)[C@H](CO)NC(=O)[C@H](Cc1c[nH]c2ccccc12)NC(=O)[C@@H](CCCN)NC(=O)CNC(=O)[C@H](CCCN)NC(=O)[C@@H](CCCN)NC(=O)[C@@H](Cc1c[nH]c2ccccc12)NC(=O)[C@@H](Cc1ccc(O)cc1)NC(=O)[C@@H](CO)NC(=O)CCCCCC(C)C)C(=O)N[C@@H](CC(N)=O)C(=O)NCC(=O)NCC(N)=O [LL(Ser9)-NH2 (46)] ({Octanoyl(7-Me)}-[dS][dY][dW][dOrn][Orn]G[dOrn]WSINGG-NH2),8,4,4,8,4,>32,4
CC[C@H](C)[C@H](NC(=O)[C@H](CC(N)=O)NC(=O)[C@H](Cc1c[nH]c2ccccc12)NC(=O)[C@@H](CCCN)NC(=O)CNC(=O)[C@H](CCCN)NC(=O)[C@@H](CCCN)NC(=O)[C@@H](Cc1c[nH]c2ccccc12)NC(=O)[C@@H](Cc1ccc(O)cc1)NC(=O)[C@@H](CO)NC(=O)CCCCCC(C)C)C(=O)N[C@@H](CC(N)=O)C(=O)NCC(=O)NCC(N)=O [LL(Asn9)-NH2 (47)] ({Octanoyl(7-Me)}-[dS][dY][dW][dOrn][Orn]G[dOrn]WNINGG-NH2),8,8,8 to 16,16,8,>32,8
CCC(C)CCC(=O)N[C@H](CC(N)=O)C(=O)N[C@H](Cc1ccc(O)cc1)C(=O)N[C@H](Cc1c[nH]c2ccccc12)C(=O)N[C@H](CCCN)C(=O)N[C@@H](CCCN)C(=O)NCC(=O)N[C@H](CCCN)C(=O)N[C@@H](Cc1c[nH]c2ccccc12)C(=O)N[C@H](C(=O)N[C@H](C(=O)NCC(N)=O)[C@@H](C)CC)[C@@H](C)O (stereo partly drawn) [Δ12LB-NH2 (9)] ({Hexanoyl(4ξ-Me)}-[dN][dY][dW][dOrn][Orn]G[dOrn]WTIG-NH2),16,8,8,8,4,>32,
CC[C@H](C)[C@H](NC(=O)[C@@H](NC(=O)[C@H](Cc1c[nH]c2ccccc12)NC(=O)[C@@H](CCCN)NC(=O)CNC(=O)[C@H](CCCN)NC(=O)[C@@H](CCCN)NC(=O)[C@@H](Cc1c[nH]c2ccccc12)NC(=O)[C@@H](Cc1ccc(O)cc1)NC(=O)[C@@H](C)NC(=O)CCCCCC(C)C)[C@@H](C)O)C(=O)N[C@@H](CC(N)=O)C(=O)NCC(=O)NCC(N)=O [LL(D-Ala1)-NH2 (29)] ({Octanoyl(7-Me)}-[dA][dY][dW][dOrn][Orn]G[dOrn]WTINGG-NH2),8,8,>32,32,8,>32,
CC[C@H](C)[C@H](NC(=O)[C@@H](NC(=O)[C@H](Cc1c[nH]c2ccccc12)NC(=O)[C@@H](C)NC(=O)CNC(=O)[C@H](CCCN)NC(=O)[C@@H](CCCN)NC(=O)[C@@H](Cc1c[nH]c2ccccc12)NC(=O)[C@@H](Cc1ccc(O)cc1)NC(=O)[C@@H](CO)NC(=O)CCCCCC(C)C)[C@@H](C)O)C(=O)N[C@@H](CC(N)=O)C(=O)NCC(=O)NCC(N)=O [LL(D-Ala7)-NH2 (35)] ({Octanoyl(7-Me)}-[dS][dY][dW][dOrn][Orn]G[dA]WTINGG-NH2),>32,>32,>32,32,32,>32,
